Source: patent publication US8686010B2, “Aryl- or heteroaryl-sulfonyl compounds as acid secretion inhibitors” (Takeda Pharmaceutical Company Limited, priority 2006, dated 2014)
Structures can show the parent of a compound that is named as a salt.

Each molecule was assayed against T1, H+,K+-ATPase (Sus scrofa, UniProt P19156) (assay: Proton potassium-adenosine triphosphatase (H+,K+-ATPase) inhibitory activity test). Settings: gastric mucous membrane microsomal fraction from swine stomach; pH 6.5, 37° C., malachite green colorimetry at 610 nm; read-out: IC50 (50% inhibitory concentration of proton, potassium-adenosine triphosphatase).
T1 construct: The obtained microsomal fraction was used as a proton, potassium—adenosine triphosphatase standard product; from tissue; host or cells: swine stomach, gastric mucous membrane microsomal fraction
T1 sequence (P19156 2-1034 limits assumed): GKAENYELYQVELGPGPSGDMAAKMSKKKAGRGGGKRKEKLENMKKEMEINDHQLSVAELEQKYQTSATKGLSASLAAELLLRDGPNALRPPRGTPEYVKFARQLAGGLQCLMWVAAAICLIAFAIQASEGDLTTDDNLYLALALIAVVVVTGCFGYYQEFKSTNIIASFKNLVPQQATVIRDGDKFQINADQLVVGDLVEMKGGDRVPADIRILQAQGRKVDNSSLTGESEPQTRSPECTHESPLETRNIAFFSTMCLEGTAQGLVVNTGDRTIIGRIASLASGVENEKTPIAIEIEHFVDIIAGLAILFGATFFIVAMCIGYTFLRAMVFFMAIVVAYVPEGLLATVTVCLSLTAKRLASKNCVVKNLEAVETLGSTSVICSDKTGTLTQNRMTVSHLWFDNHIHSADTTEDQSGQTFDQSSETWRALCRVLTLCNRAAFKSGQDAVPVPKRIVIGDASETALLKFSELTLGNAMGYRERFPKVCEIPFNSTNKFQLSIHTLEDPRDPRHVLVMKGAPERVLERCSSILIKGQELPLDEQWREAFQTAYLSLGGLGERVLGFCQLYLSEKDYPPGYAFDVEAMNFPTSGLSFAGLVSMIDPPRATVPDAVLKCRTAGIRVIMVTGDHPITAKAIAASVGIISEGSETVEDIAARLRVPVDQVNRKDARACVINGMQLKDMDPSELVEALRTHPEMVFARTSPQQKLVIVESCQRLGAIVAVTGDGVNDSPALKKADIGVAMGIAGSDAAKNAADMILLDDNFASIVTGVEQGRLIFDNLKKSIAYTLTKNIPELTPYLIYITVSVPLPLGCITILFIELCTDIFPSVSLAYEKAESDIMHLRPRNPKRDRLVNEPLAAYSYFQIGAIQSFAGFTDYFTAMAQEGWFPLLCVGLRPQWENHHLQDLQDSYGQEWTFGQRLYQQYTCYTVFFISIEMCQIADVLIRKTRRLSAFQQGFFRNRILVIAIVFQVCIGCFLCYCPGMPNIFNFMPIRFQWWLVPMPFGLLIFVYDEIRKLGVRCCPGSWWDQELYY
T1 sequence (P18434 whole entry partner): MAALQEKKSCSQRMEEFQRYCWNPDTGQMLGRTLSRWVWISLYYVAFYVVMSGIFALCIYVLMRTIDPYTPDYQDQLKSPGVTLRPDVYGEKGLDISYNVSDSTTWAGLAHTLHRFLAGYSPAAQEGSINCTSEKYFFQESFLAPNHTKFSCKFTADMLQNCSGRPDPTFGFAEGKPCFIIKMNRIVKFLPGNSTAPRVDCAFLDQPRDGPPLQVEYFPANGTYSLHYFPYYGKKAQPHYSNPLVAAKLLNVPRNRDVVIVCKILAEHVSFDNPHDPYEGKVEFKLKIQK
Format: biochemical
Protocol: Proton Potassium—Adenosine Triphosphatase (H^+,K^+-ATPase) Inhibitory Activity Test
According to the method [Biochim. Biophys. Acta, 728, 31 (1983)] of Wallmark et al., a gastric mucous membrane microsomal fraction was prepared from the stomach of swine. First, the stomach was removed, washed with tap water, immersed in 3 mol/L brine, and the surface of the mucous membrane was wiped with a paper towel. The gastric mucous membrane was detached, chopped, and homogenized in a 0.25 mol/L saccharose solution (pH 6.8) containing 1 mmol/L EDTA and 10 mmol/L tris-hydrochloric acid using polytron (Kinematica). The obtained homogenate was centrifuged at 20,000×g for 30 min and the supernatant was centrifuged at 100,000×g for 90 min. The precipitate was suspended in 0.25 mol/L saccharose solution, superimposed on a 0.25 mol/L saccharose solution containing 7.5% Ficoll, and centrifuged at 100,000×g for 5 hr. The fraction containing the interface between the both layers was recovered, and centrifugally washed with 0.25 mol/L saccharose solution.
The obtained microsomal fraction was used as a proton, potassium—adenosine triphosphatase standard product.
To 40 μL of a 50 mmol/L HEPES-tris buffer (5 mmol/L magnesium chloride, 10 mmol/L potassium chloride, 10 μmol/L valinomycin, pH=6.5) containing 2.5 μg/mL (based on the protein concentration) of the enzyme standard product was added a test compound (5 μL) dissolved in a 10% aqueous dimethyl sulfoxide solution, and the mixture was incubated at 37° C. for 30 min. The enzyme reaction was started by adding 5 μL of a 2 mmol/L adenosine triphosphate tris salt solution (50 mmol/L HEPES-tris buffer (5 mmol/L magnesium chloride, pH 6.5)). The enzyme reaction was performed at 37° C. for 20 min, and 15 μL of a malachite green solution (0.12% malachite green solution in sulfuric acid (2.5 mol/L), 7.5% ammonium molybdate and 11% Tween 20 were mixed at a ratio of 100:25:2) was added to quench the reaction. After allowing to stand at room temperature for 15 min, the resulting reaction product of inorganic phosphorus with malachite green was colorimetrically determined at a wavelength of 610 nm. In addition, the amount of the inorganic phosphoric acid in the reaction solution free of potassium chloride was measured in the same manner, which was subtracted from the inorganic phosphoric acid amount in the presence of potassium chloride to determine the proton, potassium—adenosine triphosphatase activity. The inhibitory rate (%) was determined from the activity value of the control activity value and the activity values of various concentrations of the test compound, and the 50% inhibitory concentration (IC50) of the proton, potassium-adenosine triphosphatase was determined.
CNCc1cn(-c2ccccc2)c(S(=O)(=O)c2ccccc2)c1C [Example 1, N-methyl-1-[4-methyl-1-phenyl-5-(phenylsulfonyl)-1H-pyrrol-3-yl]methanamine hydrochloride] showed an IC50 of 180 nM.
Molecule CNCc1cn(S(=O)(=O)c2cccc(OC)c2)c(-c2ccccc2)n1 [Example 7, 1-{1-[(3-methoxyphenyl)sulfonyl]-2-phenyl-1H-imidazol-4-yl}-N-methylmethanamine fumarate] has an IC50 of 30 nM.
For Cc1ccc(S(=O)(=O)n2cc(CN(C)C)nc2-c2ccccc2)cc1 [Example 5, N,N-dimethyl-1-{1-[(4-methylphenyl)sulfonyl]-2-phenyl-1H-imidazol-4-yl}methanamine 0.5 oxalate], the IC50 was 160 nM.
Molecule CNCc1nc(-c2ccccc2)c(S(=O)(=O)c2ccccc2)s1 [Example 12, N-methyl-1-[4-phenyl-5-(phenylsulfonyl)-1,3-thiazol-2-yl]methanamine hydrochloride] has an IC50 of 170 nM.
